What was measured:
prostate enlargement = assay: Treatment of a person with prostate enlargement diagnosed as a non-cancerous condition; format: in vivo, human; conditions: 10 grams with each meal, total 40 grams daily
Excerpt: A person with prostate enlargement diagnosed as a non-cancerous condition started a regimen of taking 10 grams of 2-amino-4-carbamoylbutanoic acid with each meal for a total of 40 grams daily.

male volunteers = assay: Number of night awakenings with the need to urinate, recorded by male volunteers over six-week trial periods; format: in vivo, human; conditions: volunteers who woke three or more times a night in more than 28 nights of six-week baseline; multiple daily doses of 15-20 grams; result in at least two thirds of the nights of a subsequent six week trial period; seen in some volunteers
Excerpt: A group of male volunteers recorded for six weeks the number of times a night that they were awakened with the need to urinate. Those who woke up three or more times a night in more than 28 nights durng the six week trial were then given multiple daily doses of 15-20 grams of 2-amino-4-carbamoylbutanoic acid and continued to record the number of times a night that they were awakened with the need to urinate.

## NC(=O)CCC(N)C(=O)O (stereo not drawn) [2-amino-4-carbamoylbutanoic acid]
Prostate enlargement; after a few weeks
  relief felt: felt relief
Prostate enlargement; after two months of this regimen
  prostate size: shrunk to normal size
Male volunteers
  number of times a night awakened with the need to urinate: diminished from three or more times a night to twice, once, and even none at all
